{"source": "patent US5047406A", "about": "“Substituted cyclohexanols as central nervous system agents” (Warner-Lambert Co., priority 1990, dated 1991)", "key": {"[1]": {"target": "T1, [^3 H]-Spiroperidol Binding (Homo sapiens, UniProt P14416)", "T1 construct": "receptor assay described by D. Grigoriadis and P. Seeman, Journal of Neurochemistry, Volume 44, pages 1925-1935 (1985); from tissue", "T1 sequence (P14416 whole entry)": "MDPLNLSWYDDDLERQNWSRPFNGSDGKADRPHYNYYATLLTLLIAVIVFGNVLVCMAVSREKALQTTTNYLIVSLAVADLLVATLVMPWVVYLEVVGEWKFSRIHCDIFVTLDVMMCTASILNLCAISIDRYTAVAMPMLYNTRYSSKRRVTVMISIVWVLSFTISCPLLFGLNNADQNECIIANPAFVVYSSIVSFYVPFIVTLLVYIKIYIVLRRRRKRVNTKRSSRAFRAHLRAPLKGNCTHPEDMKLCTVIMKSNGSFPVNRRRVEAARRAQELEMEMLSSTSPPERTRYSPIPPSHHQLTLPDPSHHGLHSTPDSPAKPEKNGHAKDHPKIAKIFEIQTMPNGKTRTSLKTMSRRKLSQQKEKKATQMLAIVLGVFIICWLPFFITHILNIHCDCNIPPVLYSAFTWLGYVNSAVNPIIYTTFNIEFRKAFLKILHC", "test": "Inhibition of [^3 H]-spiroperidol binding in a receptor assay", "excerpt": "(§1) The above test methods are incorporated herein by reference."}, "[2]": {"tested_on": "Locomotor Activity in Mice", "test": "Inhibition of locomotor activity in mice", "type": "in vivo", "settings": "for ED50: Mus musculus, ip; for Inhibition of Locomotor Activity in Mice ED50: IP", "excerpt": "as §1"}, "[3]": {"settings": "read-out: Inhibition of [^3 H]-Spiroperidol Binding IC50"}}, "note": "Like-named read-outs stand apart in the source and are kept apart here."}
{"smiles": "COc1ccc(C2(O)CCC(N3CCN(c4ccccn4)CC3)CC2)cc1", "note": "(centres unmarked) [Example 26, 1-(4-Methoxyphenyl)-4-[4-(2-pyridinyl)-1-piperazinyl]cyclohexanol]", "values": [{"measurement": "IC50", "setting": "[1]; [3]", "value": 670, "unit": "nM"}, {"measurement": "ED50", "setting": "[2]", "value": 0.3, "unit": "mg/kg"}]}
{"smiles": "OC1(c2ccccn2)CCC(N2CCN(c3ncccn3)CC2)CC1", "note": "(stereo not drawn) [Example 19, cis-1-(2-Pyridinyl)-4-[4-(2-pyrimidinyl)-1-piperazinyl]cyclohexanol]", "values": [{"measurement": "Inhibition of Locomotor Activity in Mice ED50", "setting": "[2]", "value": 13.0, "unit": "mg/kg"}]}
{"smiles": "OC1(c2cccs2)CCC(N2CCN(c3ccccn3)CC2)CC1", "note": "(centres unmarked) [Example 24, 4-[4-(2-Pyridinyl)-1-piperazinyl]-1-(2-thienyl)cyclohexanol]", "values": [{"measurement": "ED50", "setting": "[2]", "value": "> 30", "unit": "mg/kg"}]}
{"smiles": "OC1(c2cccnc2)CCC(CCN2CCN(c3ccccn3)CC2)CC1", "note": "(centres unmarked) [Example 10, 1-(3-Pyridinyl)-4-[2-[4-(2-pyridinyl)-1-piperazinyl]ethyl]cyclohexanol]", "values": [{"measurement": "IC50", "setting": "[1]; [3]", "value": 847, "unit": "nM"}, {"measurement": "ED50", "setting": "[2]", "value": 0.37, "unit": "mg/kg"}]}
{"smiles": "OC1(c2ccccc2)CCC(N2CCN(c3ccccn3)CC2)CC1", "note": "(centres unmarked) [Example 27, 1-Phenyl-4-[4-(2-pyridinyl)-1-piperazinyl]cyclohexanol]", "values": [{"measurement": "IC50", "setting": "[1]; [3]", "value": 1660, "unit": "nM"}, {"measurement": "ED50", "setting": "[2]", "value": 0.83, "unit": "mg/kg"}]}
{"smiles": "COc1ccccc1C(=O)N[C@H]1CC[C@H](N2CCN(c3ccccn3)CC2)CC1", "note": "[Example 41, trans N-[4-[4-(2-Pyridinyl)-1-piperazinyl]cyclohexyl]-2-methoxybenzamide]", "values": [{"measurement": "IC50", "setting": "[1]; [3]", "value": 530, "unit": "nM"}, {"measurement": "ED50", "setting": "[2]", "value": 1.9, "unit": "mg/kg"}]}
{"smiles": "O=C(N[C@H]1CC[C@H](CCN2CCN(c3ccccn3)CC2)CC1)c1ccc(Cl)cc1", "note": "[Example 57, trans 4-Chloro-N-[4-[2-[4-(2-pyridinyl)-1-piperazinyl]ethyl]cyclohexyl]benzamide]", "values": [{"measurement": "IC50", "setting": "[1]; [3]", "value": 620, "unit": "nM"}, {"measurement": "ED50", "setting": "[2]", "value": 0.51, "unit": "mg/kg"}]}
{"smiles": "OC1(c2cccs2)CCC(CCN2CC=C(c3ccccc3)CC2)CC1", "note": "(stereo not drawn) [Example 13, cis-4-[2-(3,6-Dihydro-4-phenyl-1(2H)-pyridinyl)ethyl]-1-(2-thienyl)cyclohexanol]", "values": [{"measurement": "IC50", "setting": "[1]; Inhibition of [^3 H]-Spiroperidol Binding IC50", "value": 51, "unit": "nM"}, {"measurement": "ED50", "setting": "[2]", "value": 2, "unit": "mg/kg"}]}
{"smiles": "OC1(c2ccccn2)CCC(CCN2CCN(c3ccccn3)CC2)CC1", "note": "(centres unmarked) [Example 6, 1-(2-Pyridinyl)-4-[2-[4-(2-pyridinyl)-1-piperazinyl]ethyl]cyclohexanol]", "values": [{"measurement": "IC50", "setting": "[1]; [3]", "value": 1050, "unit": "nM"}, {"measurement": "ED50", "setting": "[2]", "value": 0.34, "unit": "mg/kg"}]}
{"smiles": "O=C(N[C@H]1CC[C@@H](CCN2CC=C(c3ccccc3)CC2)CC1)c1ccccc1", "note": "[Example 69, cis N-[4-[2-(3,6-Dihydro-4-phenyl-1(2H)-pyridinyl)ethyl]cyclohexyl]benzamide]", "values": [{"measurement": "ED50", "setting": "[2]", "value": 2.1, "unit": "mg/kg"}]}
{"smiles": "O=C(N[C@H]1CC[C@H](N2CCN(c3ccccn3)CC2)CC1)c1cccs1", "note": "[Example 44, trans N-[4-[4-(2-Pyridinyl)-1-piperazinyl]cyclohexyl]-2-thiophenecarboxamide]", "values": [{"measurement": "IC50", "setting": "[1]; [3]", "value": 2520, "unit": "nM"}, {"measurement": "ED50", "setting": "[2]", "value": 0.29, "unit": "mg/kg"}]}
{"smiles": "OC1(c2nccs2)CCC(CCN2CCN(c3ccccn3)CC2)CC1", "note": "(centres unmarked) [Example 9, 4-[2-[4-(2-Pyridinyl)-1-piperazinyl]ethyl]-1-(2-thiazolyl)cyclohexanol]", "values": [{"measurement": "IC50", "setting": "[1]; [3]", "value": 1550, "unit": "nM"}, {"measurement": "ED50", "setting": "[2]", "value": 1, "unit": "mg/kg"}]}
{"smiles": "OC1(c2ccccn2)CCC(N2CCN(c3ccccn3)CC2)CC1", "note": "(stereo not drawn) [Example 20, trans-1-(2-Pyridinyl)-4-[4-(2-pyridinyl)-1-piperazinyl]cyclohexanol]", "values": [{"measurement": "Inhibition of Locomotor Activity in Mice ED50", "setting": "[2]", "value": "> 30", "unit": "mg/kg"}]}
{"smiles": "OC1(c2ccc(Cl)cc2)CCC(N2CCN(c3ccccn3)CC2)CC1", "note": "(stereo not drawn) [Example 1a, cis-1-(4-Chlorophenyl)-4-[4-(2-pyridinyl)-1-piperazinyl]cyclohexanol]", "values": [{"measurement": "IC50", "setting": "[1]; [3]", "value": 816, "unit": "nM"}, {"measurement": "Inhibition of Locomotor Activity in Mice ED50", "setting": "[2]", "value": 0.86, "unit": "mg/kg"}]}
{"smiles": "Cc1ccc(C(=O)N[C@H]2CC[C@@H](CCN3CCN(c4ccccn4)CC3)CC2)cc1", "note": "[Example 55, cis 4-Methyl-N-[4-[2-[4-(2-pyridinyl)-1-piperazinyl]ethyl]cyclohexyl]benzamide]", "values": [{"measurement": "IC50", "setting": "[1]; [3]", "value": 830, "unit": "nM"}]}
{"smiles": "O=C(N[C@H]1CC[C@H](N2CC=C(c3ccccc3)CC2)CC1)C1CCCCC1", "note": "[Example 50, trans N-[4-(3,6-Dihydro-4-phenyl-1(2H)-pyridinyl)cyclohexyl]cyclohexanecarboxamide]", "values": [{"measurement": "IC50", "setting": "[1]; [3]", "value": 1600, "unit": "nM"}, {"measurement": "ED50", "setting": "[2]", "value": 1.1, "unit": "mg/kg"}]}
{"smiles": "OC1(c2cccnc2)CCC(N2CC=C(c3ccccc3)CC2)CC1", "note": "(stereo not drawn) [Example 30, cis-4-(3,6-Dihydro-4-phenyl-1(2H)-pyridinyl)-1-(3-pyridinyl)cyclohexanol]", "values": [{"measurement": "IC50", "setting": "[1]; [3]", "value": 1250, "unit": "nM"}, {"measurement": "Inhibition of Locomotor Activity in Mice ED50", "setting": "[2]", "value": 1.3, "unit": "mg/kg"}]}
{"smiles": "OC1(c2cccnc2)CCC(N2CCN(c3ccccn3)CC2)CC1", "note": "(stereo not drawn) [Example 22, trans-1-(3-Pyridinyl)-4-[4-(2-pyridinyl)-1-piperazinyl]cyclohexanol]", "values": [{"measurement": "IC50", "setting": "[1]; [3]", "value": 12500, "unit": "nM"}, {"measurement": "Inhibition of Locomotor Activity in Mice ED50", "setting": "[2]", "value": 30, "unit": "mg/kg"}]}
{"smiles": "OC1(c2ccsc2)CCC(N2CCN(c3ccccn3)CC2)CC1", "note": "(centres unmarked) [Example 25, 4-[4-(2-Pyridinyl)-1-piperazinyl]-1-(3-thienyl)cyclohexanol]", "values": [{"measurement": "IC50", "setting": "[1]; [3]", "value": 2700, "unit": "nM"}, {"measurement": "ED50", "setting": "[2]", "value": 2.4, "unit": "mg/kg"}]}
{"smiles": "OC1(c2ccc(Cl)cc2)CCC(N2CCN(c3ccccn3)CC2)CC1", "note": "(stereo not drawn) [Example 1, trans-1-(4-Chlorophenyl)-4-[4-(2-pyridinyl)-1-piperazinyl]cyclohexanol]", "values": [{"measurement": "IC50", "setting": "[1]; [3]", "value": 333, "unit": "nM"}, {"measurement": "Inhibition of Locomotor Activity in Mice ED50", "setting": "[2]", "value": 2.3, "unit": "mg/kg"}]}
{"smiles": "O=C(N[C@H]1CC[C@H](N2CCN(c3ccccn3)CC2)CC1)c1ccc(Cl)cc1", "note": "[Example 43, trans 4-Chloro-N-[4-[4-(2-pyridinyl)-1-piperazinyl]cyclohexyl]benzamide]", "values": [{"measurement": "IC50", "setting": "[1]; [3]", "value": 7790, "unit": "nM"}, {"measurement": "ED50", "setting": "[2]", "value": 0.78, "unit": "mg/kg"}]}
{"smiles": "O=C(N[C@H]1CC[C@@H](CCN2CC=C(c3ccccc3)CC2)CC1)c1cccs1", "note": "[Example 70, cis N-[4-[2-(3,6-Dihydro-4-phenyl-1(2H)-pyridinyl)ethyl]cyclohexyl]-2-thiophenecarboxamide]", "values": [{"measurement": "IC50", "setting": "[1]; [3]", "value": 280, "unit": "nM"}]}
{"smiles": "OC1(c2ccccn2)CCC(N2CCN(c3ncccn3)CC2)CC1", "note": "(stereo not drawn) [Example 18, trans-1-(2-Pyridinyl)-4-[4-(2-pyrimidinyl)-1-piperazinyl]cyclohexanol]", "values": [{"measurement": "Inhibition of Locomotor Activity in Mice ED50", "setting": "[2]", "value": "> 30", "unit": "mg/kg"}]}
{"smiles": "OC1(c2cccnc2)CCC(N2CC=C(c3ccccc3)CC2)CC1", "note": "(stereo not drawn) [Example 29, trans-4-(3,6-Dihydro-4-phenyl-1(2H)-pyridinyl)-1-(3-pyridinyl)cyclohexanol]", "values": [{"measurement": "Inhibition of Locomotor Activity in Mice ED50", "setting": "[2]", "value": 25.6, "unit": "mg/kg"}]}
{"smiles": "OC1(c2cccnc2)CCC(N2CCN(c3ccccn3)CC2)CC1", "note": "(stereo not drawn) [Example 23, cis-1-(3-Pyridinyl)-4-[4-(2-pyridinyl)-1-piperazinyl]cyclohexanol]", "values": [{"measurement": "IC50", "setting": "[1]; [3]", "value": 1160, "unit": "nM"}, {"measurement": "Inhibition of Locomotor Activity in Mice ED50", "setting": "[2]", "value": 1.6, "unit": "mg/kg"}]}
{"smiles": "OC1(c2cccs2)CCC(CN2CCN(c3ccccn3)CC2)CC1", "note": "(stereo not drawn) [Example 17, cis-4-[[4-(2-Pyridinyl)-1-piperazinyl]methyl]-1-(2-thienyl)cyclohexanol]", "values": [{"measurement": "IC50", "setting": "[1]; [3]", "value": 3900, "unit": "nM"}, {"measurement": "Inhibition of Locomotor Activity in Mice ED50", "setting": "[2]", "value": 5.2, "unit": "mg/kg"}]}
{"smiles": "OC1(c2ccccn2)CCC(N2CC=C(c3ccccc3)CC2)CC1", "note": "(centres unmarked) [Example 28, 4-(3,6-Dihydro-4-phenyl-1(2H)-pyridinyl)-1-(2-pyridinyl)cyclohexanol]", "values": [{"measurement": "ED50", "setting": "[2]", "value": 1.8, "unit": "mg/kg"}]}
{"smiles": "OC1(c2ccccn2)CCC(N2CCN(c3ccccn3)CC2)CC1", "note": "(stereo not drawn) [Example 21, cis-1-(2-Pyridinyl)-4-[4-(2-pyridinyl)-1-piperazinyl]cyclohexanol]", "values": [{"measurement": "IC50", "setting": "[1]; [3]", "value": 2780, "unit": "nM"}, {"measurement": "Inhibition of Locomotor Activity in Mice ED50", "setting": "[2]", "value": 2.3, "unit": "mg/kg"}]}
{"smiles": "OC1(c2cccs2)CCC(CN2CCN(c3ccccn3)CC2)CC1", "note": "(stereo not drawn) [Example 16, trans-4-[[4-(2-Pyridinyl)-1-piperazinyl]methyl]-1-(2-thienyl)cyclohexanol]", "values": [{"measurement": "ED50", "setting": "[2]", "value": 4.3, "unit": "mg/kg"}]}
{"smiles": "O=C(N[C@H]1CC[C@@H](CCN2CCN(c3ccccn3)CC2)CC1)c1ccc(Cl)cc1", "note": "[Example 56, cis 4-Chloro-N-[4-[2-[4-(2-pyridinyl)-1-piperazinyl]ethyl]cyclohexyl]benzamide]", "values": [{"measurement": "IC50", "setting": "[1]; [3]", "value": 1620, "unit": "nM"}, {"measurement": "ED50", "setting": "[2]", "value": 6.3, "unit": "mg/kg"}]}
